Our source for the IC50 values is ChEMBL document CHEMBL1142568, “Cytotoxic hydroxylated triterpene alcohol ferulates from rice bran” (J Nat Prod, 2005).

In general, IC50 refers to the concentration at which inhibition is half-maximal. Read a high IC50 as weaker potency.

SMILES strings stand for the structures.

In this assay the test system is MCF7. As to the kind of experiment: Cytotoxicity against human MCF7 cells after 72 hrs by MTT assay. In kind it is functional, cell-based. Particulars: MCF7, 72 h.
In turn, `C=C(CC[C@@H](C)[C@H]1CC[C@@]2(C)[C@@H]3CC[C@H]4C(C)(C)[C@@H](OC(=O)/C=C/c5ccc(O)c(OC)c5)CC[C@@]45C[C@@]35CC[C@]12C)C(C)C` had an IC50 of 27 µM.

For the compound `COc1cc(/C=C/C(=O)O[C@H]2CC[C@]34C[C@]35CC[C@]3(C)[C@@H]([C@H](C)C/C=C\C(C)(C)O)CC[C@@]3(C)[C@@H]5CC[C@H]4C2(C)C)ccc1O`, the IC50 is 79 µM.

Consider `C=C(C)[C@@H](O)CC[C@@H](C)[C@H]1CC[C@@]2(C)[C@@H]3CC[C@H]4C(C)(C)[C@@H](OC(=O)/C=C/c5ccc(O)c(OC)c5)CC[C@@]45C[C@@]35CC[C@]12C`, for which the IC50 turned out to be 283 µM.

With `C=C(C)[C@H](O)CC[C@@H](C)[C@H]1CC[C@@]2(C)[C@@H]3CC[C@H]4C(C)(C)[C@@H](OC(=O)/C=C/c5ccc(O)c(OC)c5)CC[C@@]45C[C@@]35CC[C@]12C`, half-maximal inhibition (IC50) was put at 42 µM.

Take `COc1cc(/C=C/C(=O)O[C@H]2CC[C@]34C[C@]35CC[C@]3(C)[C@@H]([C@H](C)CCC=C(C)C)CC[C@@]3(C)[C@@H]5CC[C@H]4C2(C)C)ccc1O` [GAMMA ORYZANOL]: the IC50 was 80 µM.
